For orientation: EC50 means the midpoint of the concentration-response curve.

These results are taken from US20070037816A1, “Bicyclic piperazines as metabotropic glutatmate receptor antagonists” (AstraZeneca AB, priority 2005, published 2007).

The assay deals with T1, human mGluR5d (Homo sapiens, UniProt P41594).
T1 construct: expressed in transfected cells; host or cells: GHEK (HEK cells expressing a glutamate transporter) for the IP3 assay
T1 sequence (P41594 21-942 isoform P41594-3 limits assumed): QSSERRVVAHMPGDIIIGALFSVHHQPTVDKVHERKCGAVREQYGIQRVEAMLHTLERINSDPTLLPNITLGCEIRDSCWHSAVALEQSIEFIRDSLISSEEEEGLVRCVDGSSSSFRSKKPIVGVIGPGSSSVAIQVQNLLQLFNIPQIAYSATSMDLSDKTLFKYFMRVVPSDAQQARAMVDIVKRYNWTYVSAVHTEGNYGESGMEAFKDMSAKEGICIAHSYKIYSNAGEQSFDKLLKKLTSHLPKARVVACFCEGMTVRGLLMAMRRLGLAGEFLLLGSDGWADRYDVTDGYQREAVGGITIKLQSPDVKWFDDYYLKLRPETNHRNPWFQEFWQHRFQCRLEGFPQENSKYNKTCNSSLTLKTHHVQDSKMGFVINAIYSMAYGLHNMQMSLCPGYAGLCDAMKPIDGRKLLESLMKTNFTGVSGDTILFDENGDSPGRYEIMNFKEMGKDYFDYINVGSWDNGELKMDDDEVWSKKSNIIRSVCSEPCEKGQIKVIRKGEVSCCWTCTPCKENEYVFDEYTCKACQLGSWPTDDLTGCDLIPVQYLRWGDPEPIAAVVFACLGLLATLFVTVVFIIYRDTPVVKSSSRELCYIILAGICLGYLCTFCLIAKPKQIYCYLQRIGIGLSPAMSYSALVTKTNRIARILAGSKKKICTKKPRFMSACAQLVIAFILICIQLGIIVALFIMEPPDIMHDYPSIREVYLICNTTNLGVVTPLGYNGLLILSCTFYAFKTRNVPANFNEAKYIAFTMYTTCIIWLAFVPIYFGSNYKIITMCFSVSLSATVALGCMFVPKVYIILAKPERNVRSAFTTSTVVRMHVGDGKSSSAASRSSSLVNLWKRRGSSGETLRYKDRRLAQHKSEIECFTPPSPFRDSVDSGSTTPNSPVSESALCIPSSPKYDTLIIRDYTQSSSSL
The experiment in a line: Functional assessment of mGluR5 antagonism in cell lines expressing mGluR5d (FLIPR calcium mobilization / IP3 turnover; assay not given). It counts as cell-based. The conditions noted are these: cells expressing human mGluR5d; assay (FLIPR or IP3) not stated. An excerpt: The pharmacological properties of the compounds of the invention can be analyzed using standard assays for functional activity. Examples of glutamate receptor assays are well known in the art as described in for example Aramori et al., Neuron 8:757 (1992), Tanabe et al., Neuron 8:169 (1992), Miller et al., J. Neuroscience 15: 6103 (1995), Balazs, et al., J. Neurochemistry 69:151 (1997). The methodology described in these publications is incorporated herein by reference. Conveniently, the compounds of the invention can be studied by means of an assay that measures the mobilization of intracellular calcium, [Ca^2+]i in cells expressing mGluR5.
Intracellular calcium mobilization was measured by detecting changes in fluorescence of cells loaded with the fluorescent indicator fluo-3. Fluorescent signals were measured using the FLIPR system (Molecular Devices). A two addition experiment was used that could detect compounds that either activate or antagonize the receptor.
For FLIPR analysis, cells expressing human mGluR5d were seeded on collagen coated clear bottom 96-well plates with black sides and analysis of [Ca^2+]i mobilization was done 24 hours after seeding.
FLIPR experiments were done using a laser setting of 0.800 W and a 0.4 second CCD camera shutter speed. Each FLIPR experiment was initiated with 160 μL of buffer present in each well of the cell plate. After each addition of the compound, the fluorescence signal was sampled 50 times at 1 second intervals followed by 3 samples at 5 second intervals. Responses were measured as the peak height of the response within the sample period.
EC50 and IC50 determinations were made from data obtained from 8-point concentration response curves (CRC) performed in duplicate. Agonist CRC were generated by scaling all responses to the maximal response observed for the plate. Antagonist block of the agonist challenge was normalized to the average response of the agonist challenge in 14 control wells on the same plate.
We have validated a secondary functional assay for mGluR5d based on Inositol Phosphate (IP3) turnover. IP3 accumulation is measured as an index of receptor mediated phospholipase C turnover. GHEK cells stably expressing the human mGluR5d receptors were incubated with [3H] myo-inositol overnight, washed three times in HEPES buffered saline and pre-incubated for 10 minutes with 10 mM LiCl. Compounds (agonists) were added and incubated for 30 minutes at 37° C. Antagonist activity was determined by pre-incubating test compounds for 15 minutes, then incubating in the presence of glutamate (80 μM) or DHPG (30 μM) for 30 minutes. Reactions were terminated by the addition of perchloric acid (5%). Samples were collected and neutralized, and inositol phosphates were separated using Gravity-Fed Ion-Exchange Columns.
Functional Assessment of mGluR5 Antagonism in Cell Lines Expressing mGluR5d
The properties of the compounds of the invention can be analyzed using standard assays for pharmacological activity. Examples of glutamate receptor assays are well known in the art as described in for example Aramori et al, Neuron 8:757 (1992), Tanabe et al., Neuron 8:169 (1992), Miller et al, J. Neuroscience 15: 6103 (1995), Balazs, et al, J. Neurochemistry 69:151 (1997). The methodology described in these publications is incorporated herein by reference. Conveniently, the compounds of the invention can be studied by means of an assay (FLIPR) that measures the mobilization of intracellular calcium, [Ca^2+]i in cells expressing mGluR5 or another assay (IP3) that measures inositol phosphate turnover.
Cells expressing human mGluR5d as described in W097/05252 are seeded at a density of 100,000 cells per well on collagen coated clear bottom 96-well plates with black sides and experiments are done 24 h following seeding. […]
(Calcium assays in cells follow changes in intracellular calcium, usually with a dye or a luminescent sensor.)
Consider `N#Cc1cccc(-c2cc([C@H]3CCC[C@H]4CN(c5nccnc5C#N)CCN43)no2)c1` (racemic) [Example 13.1, (±)-3-[(6R,9aS)-6-[5-(3-cyanophenyl)isoxazol-3-yl]octahydro-2H-pyrido[1,2-a]pyrazin-2-yl]pyrazine-2-carbonitrile], for which the EC50 was 0.159 µM. For the compound `N#Cc1nccnc1N1CCN2[C@@H](CC[C@@H]2c2nnn(-c3cccc(Cl)c3)n2)C1` (racemic) [Example 5.1, (±)-3-[(6R,8aS)-6-[2-(3-chlorophenyl)-2H-tetrazol-5-yl]hexahydropyrrolo[1,2-a]pyrazin-2(1H)-yl]pyrazine-2-carbonitrile], the EC50 was found to be 0.01 µM.

On to `N#Cc1cccnc1N1CCN2[C@@H](CC[C@@H]2c2cn(-c3cccc(F)c3)nn2)C1` (racemic) [Example 4.1, (±)-2-[(6R,8aS)-6-[1-(3-fluorophenyl)-1H-1,2,3-triazol4-yl]hexahydropyrrolo[1,2-a]pyrazin-2(1H)-yl]nicotinonitrile], for which the concentration for a half-maximal effect (EC50) worked out at 0.219 µM. Then `N#Cc1ccc(N2CCN3[C@@H](CC[C@@H]3c3cc(-c4cccc(Cl)c4)on3)C2)nc1` (racemic) [Example 6.2, (±)-6-[(6R,8aS)-6-[5-(3-chlorolphenyl)isoxazol-3-yl]hexahydropyrrolo[1,2-a]pyrazin-2(1H)-yl]nicotinonitrile], with 2.41 µM; and `N#Cc1nccnc1N1CCN2[C@@H](CC[C@@H]2c2cc(-c3cccc(Cl)c3)no2)C1` (racemic) [Example 8.1, (±)-3-[(6R,8aS)-6-[3-(3-chlorophenyl)isoxazol-5-yl]hexahydropyrrolo[1,2-a]pyrazin-2(1H)-yl]pyrazine-2-carbonitrile], with 0.377 µM. Then `Cc1cccc(-n2nnc([C@H]3CC[C@H]4CN(c5ncccc5C#N)CCN43)n2)c1` (racemic) [Example 5.4, (±)-2-[(6R,8aS)-6-[2-(3-methylphenyl)-2H-tetrazol-5-yl]hexahydropyrrolo[1,2-a]pyrazin-2(1H)-yl]nicotinonitrile], with 0.016 µM.
